Read-outs that look alike come from different tables or passages of the source.
Experiments:
NOXA = experiment: Western blot of pro-survival and pro-apoptotic proteins in melanoma cells; assay type: cell-based, human; conditions: several melanoma cell lines, similar time points; data not shown
Procedure: To assess the effect of z-Leu-Leu-Nle-CHO on pro-apoptotic proteins, RJ002L pulmonary metastases melanoma cells were grown in RPMI supplemented with 10% FBS. Highly proliferating cells (i.e., cells that had reached approximately 30% confluency) were exposed to z-Leu-Leu-Nle-CHO by replenishing the culture media with media containing z-Leu-Leu-Nle-CHO (10 μM) (experimental group) or media without z-Leu-Leu-Nle-CHO (control group) and the cells were incubated for a specified period of time prior to harvesting the cells for further analysis.
Western blot analyses following z-Leu-Leu-Nle-CHO and control treatment of RJ002L melanoma cells were performed to determine the effect of z-Leu-Leu-Nle-CHO on pro-survival and pro-apoptotic proteins. Whole cell extracts were prepared and analyzed as described by Denning, M. F. et al., 1998, J Biol Chem 273: 29995-30002, 1998. The enriched mitochondria pellet and mitochondria-free cytosol of melanoma cells were prepared with the APO ALERT cell fraction kit (Clontech Laboratories, Inc. Palo Alto, Calif.) according to the manufacturer's instructions. For Western blot analysis, equal amounts of protein extracted from each sample (20-30 μg) were loaded into pre-cast 7% NuPAGE Tris-acetate gels or 4-12% NuPAGE Bis-tris gels (Invitrogen). Proteins were separated by SDS-PAGE and transferred to polyvinylidene difluoride membranes (Bio-Rad, Hercules, Calif.) using Invitrogen's buffering system. The indicated primary antibodies were incubated for indicated period of time, washed, and visualized by incubation with horseradish peroxidase-conjugated secondary antibodies and chemiluminescent reagents (Roche Diagnostics Corporation, Indianapolis, Ind.). Antibodies used were as follows: From Santa Cruz Biotechnology: Bcl-2 (SC-7382), BCl-xL (SC-634), Mcl-1 (SC-819), survivin (SC-10811), Bax (SC-493), Bak (SC-832), Bim (SC-11425), PUMA (SC-19187), p53 (SC-126), and GADD45 (SC-796); From Cell Signaling: Bid (#2002), and cleaved caspase 9 (9501); NOXA (OP180—Oncogene Research Products), Apaf-1 (559683-BD Bioscience), Smac/Diablo (IMG-248-Imgenex), cytochrome C (part of kit—Apo Alert™ cell fraction kit—Clontech Laboratories, Inc.—Palo Alto, Calif.), PARP (Pharmingen, San Diego, Calif.) and β-actin (Sigma Chemical Co., St. Louis, Mo.). Secondary antibodies anti-goat, anti-mouse, anti-rabbit and anti-rat (IgG-HRP) were purchased from Vector Laboratories (Burlingame, Calif.), Santa Cruz Biotechnology and Amersham Biosciences.
To determine if p53 status influences induction of NOXA, NOXA induction in z-Leu-Leu-Nle-CHO-treated melanoma cell lines (10 μM) containing p53 mutations (i.e. C8161, SK-MeI-28, MUM2B) were examined using Western blot analysis as described above and compared to that of Western blot results from z-Leu-Leu-Nle-CHO-treated melanoma cell lines (10 μM) having wild-type p53 (RJ002L, SK-MeI-100). […] In contrast, C8161, which carries a R196Stop mutation in only one allele, has p53 expression similar to that observed in wild-type cell lines. […] NOXA induction occurred earlier in SK-MeI-100 cells than in the other tested cell lines (FIG. 2C). Apaf-1 levels were not increased in response to z-Leu-Leu-Nle-CHO (data not shown).

RJ002L melanoma cells = experiment: Dosing study versus chemotherapeutic agents, killing of RJ002L melanoma cells; assay type: cell-based, human
Procedure: (§1) An initial dosing study comparing z-Leu-Leu-Nle-CHO against three different chemotherapeutic agents (i.e., adriamycin, etoposide, and cisplatin) was performed to evaluate the relative effectiveness of z-Leu-Leu-Nle-CHO in killing melanoma cells. In agreement with a previous report by Soengas, M. S. et al., 2001, Nature 409.207-211, SK-MeI-28 cells, carrying a mutated p53, were relatively resistant to killing by adriamycin, as well as to killing by other chemotherapeutic agents. For SK-MeI-28 melanoma cells, the maximal apoptotic response for adriamycin, etoposide, cisplatin, and z-Leu-Leu-Nle-CHO was 12.0%, 2.6%, 4.0%, and 29.4%, respectively. For RJ002L melanoma cells, the maximal apoptotic response for adriamycin, etoposide, cisplatin, and z-Leu-Leu-Nle-CHO was 23.9%, 12.7%, 3.4%, and 45.7%, respectively.

SK-MeI-28 melanoma cells = experiment: Dosing study versus chemotherapeutic agents, killing of SK-MeI-28 melanoma cells; assay type: cell-based, human; conditions: SK-MeI-28, mutated p53
Procedure: as §1

[1] = system: CaSki human cervical cancer cells; experiment: Cell growth inhibition assay in CaSki cervical cancer cells (crystal violet); assay type: cell-based; conditions: 48 hrs, read-out: IC50 of cisplatin
Procedure: The cell growth inhibition assay was performed in a 96-well plate format. Inhibition was assessed by monitoring the protein content in each well using the crystal violet staining method as described by Skehan et al., 1990, J Natl Cancer Inst 82:1107-1112 and Prochaska et al., 1988, Anal Biochem 169:328-336. Briefly, cells were plated at a density of 2×10^4 cells/ml in 200 μl of DMEM supplemented with 10% FBS. The cells were transfected with siRNAs ([…] siRNA oligos/well) using Oligofectamine Transfection Reagents (InVitrogen) according to manufacturer's instructions. Twenty-four hours post-transfection, the media was decanted, 190 μl of fresh media was added to each well, and 10 μl of cisplatin (4 mM) dissolved in 10% DMSO was added to the wells as a series 2-fold dilutions (final concentration of cisplatin in the wells ranged from 0.5-200 μM). The cells were incubated with cisplatin for 48 hrs, the media was decanted, and the cells were submerged with 200 μl of 0.2% crystal violet in 2% ethanol for 10 min. The plates were rinsed for 2 min with tap water. The bound dye was solublized by incubation at 37° C. for 1 h with 200 μl of 0.5% sodium dedecyl sulfate in 50% ethanol. The plates were then scanned with an ELISA reader at 562 nm. The percentage cell growth inhibition mediated by cisplatin was calculated as: % inhibition=[1-(OD of cisplatin-treated cells/OD DMSO-treated control cells)]×100/100.
CaSki human cervical cancer cells treated for 48 hrs with z-Leu-Leu-Nle-CHO alone were tested for cell growth inhibition. The cell growth inhibition assay was performed in a 96-well plate format. Inhibition was assessed by monitoring the protein content in each well using the crystal violet staining method Skehan, P. et al., 1990, J Natl Cancer Inst 82:1107-1112. Briefly, cells were plated at a density of 2×10^4 cells/ml in 200 μl of DMEM supplemented with 10% FBS. After pre-incubation period of 24 h, the media was decanted, 190 μl of fresh media was added to each well, and 10 μl (150 μM) of z-Leu-Leu-Nle-CHO dissolved in 10% DMSO was added to the wells as a series 2-fold dilutions (final concentration of cisplatin in the wells ranged from 0.05-7.5 μM). The cells were incubated with z-Leu-Leu-Nle-CHO for 48 hrs, the media was decanted, and the cells were submerged with 200 μl of 0.2% crystal violet in 2% ethanol for 10 min. The plates were rinsed for 2 min with tap water. The bound dye was solublized by incubation at 37° C. for 1 h with 200 μl of 0.5% sodium dedecyl sulfate in 50% ethanol. The plates were then scanned with an ELISA reader at 562 nm. The percentage cell growth inhibition mediated by test agents was calculated as: % inhibition=[1-(OD of z-Leu-Leu-Nle-CHO-treated cells/OD DMSO-treated control cells)]×100/100.
To determine whether z-Leu-Leu-Nle-CHO treatment potentiates the effect of cisplatin on human […] cancer cells, the CaSki cells were treated for 48 h with 0.1-0.8 μM z-Leu-Leu-Nle-CHO and various concentrations of cisplatin (2-fold dilutions of a cisplatin solution to produce final concentrations of 1.6-200 μM cisplatin). Following the z-Leu-Leu-Nle-CHO and cisplatin treatment, the cells were tested for growth inhibition as described above.
Isobologram analysis was performed by measuring the IC50 values of cisplatin in the presence of various concentrations of z-Leu-Leu-Nle-CHO. These IC50 values were plotted with SigmaPlot, and a straight line was traced between the IC50 values of cells treated with either cisplatin or z-Leu-Leu-Nle-CHO alone.

| SMILES | NOXA induction by DNA damaging agents (NOXA) | maximal apoptotic response (RJ002L melanoma cells) | maximal apoptotic response (SK-MeI-28 melanoma cells) | IC50 ([1]; in combination with Notch-1 siRNA) | IC50 ([1]; without Notch-1 siRNA) |
| --- | --- | --- | --- | --- | --- |
| COc1cccc2c1C(=O)c1c(O)c3c(c(O)c1C2=O)C[C@@](O)(C(=O)CO)C[C@@H]3O[C@H]1C[C@H](N)[C@H](O)[C@H](C)O1 [adriamycin] | did not induce NOXA | 23.9% | 12.0% |  |  |
| N.N.[Cl][Pt][Cl] [cisplatin] | did not induce NOXA | 3.4% | 4.0% | 0.46 µM | 27.3 µM |
| COc1cc([C@@H]2c3cc4c(cc3[C@@H](O[C@@H]3O[C@@H]5CO[C@@H](C)O[C@H]5[C@H](O)[C@H]3O)[C@H]3COC(=O)[C@H]23)OCO4)cc(OC)c1O [etoposide] | did not induce NOXA | 12.7% | 2.6% |  |  |

— patent US20080220416A1, “Compositions for Inhibiting Cell Growth and Inducing Apoptosis in Cancer Cells and Methods of Use Thereof” (THE BOARD OF TRUSTEES OF THE UNIVERSITY OF ILLINOI, priority 2004, published 2008)
